One experiment addresses T1, RAT 5-LIPOXYGENASE (Rattus norvegicus, UniProt P12527).
T1 construct: A suspension of rat neutrophils in buffer; endogenous in cells; host or cells: rat neutrophils (polymorphonuclear leukocytes)
T1 sequence (P12527 1-673): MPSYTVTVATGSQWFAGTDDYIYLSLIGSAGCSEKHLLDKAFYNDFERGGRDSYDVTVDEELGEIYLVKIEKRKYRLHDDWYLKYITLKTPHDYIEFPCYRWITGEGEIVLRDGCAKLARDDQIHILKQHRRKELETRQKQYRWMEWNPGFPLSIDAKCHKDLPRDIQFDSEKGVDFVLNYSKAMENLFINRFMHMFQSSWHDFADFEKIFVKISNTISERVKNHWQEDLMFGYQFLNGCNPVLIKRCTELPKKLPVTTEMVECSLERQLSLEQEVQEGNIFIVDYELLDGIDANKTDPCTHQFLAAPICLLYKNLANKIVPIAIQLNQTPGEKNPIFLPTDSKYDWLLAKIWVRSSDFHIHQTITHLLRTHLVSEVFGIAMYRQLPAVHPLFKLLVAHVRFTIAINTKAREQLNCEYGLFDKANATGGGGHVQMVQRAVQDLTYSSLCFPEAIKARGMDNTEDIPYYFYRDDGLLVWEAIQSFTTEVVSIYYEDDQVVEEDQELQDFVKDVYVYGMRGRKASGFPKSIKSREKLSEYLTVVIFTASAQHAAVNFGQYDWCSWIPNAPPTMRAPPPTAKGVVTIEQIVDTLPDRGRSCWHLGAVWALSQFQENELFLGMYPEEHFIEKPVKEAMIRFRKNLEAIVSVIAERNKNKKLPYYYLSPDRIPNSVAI
The experiment in a line: Biosynthesis of 5-HETE by rat polymorphonuclear leukocytes in vitro (inhibition of rat 5-lipoxygenase). Conditions: rat neutrophils, A23187, 3 minutes at 30° C.; for IC50: concentration at which 50% inhibition is observed, read-out: INHIBITION OF RAT 5-LIPOXYGENASE, I50. It counts as cell-based. On the procedure:
Protocol for the Biosynthesis of 5-HETE by Rat Polymorphonuclear Leukocytes In Vitro
A suspension of rat neutrophils in buffer is incubated for 3 minutes at 30° C. with [^14 C]-arachidonic acid (AA) and calcium ionophore A23187. Citric Acid (2M) NDGA (10 mM) is used to quench the reaction. Following the addition of a trace amount of (^3 H)-5-HETE together with an excess of unlabeled 5-HETE to each tube, the mixture is extracted with chloroform/methanol. The organic layer is washed with dilute acid and an aliquot is transferred to glass tubes and dried. The residue is dissolved in a small volume of chloroform and an aliquot is spotted on silica gel TLC sheets, which are developed with an ethyl acetate/isoctane/water/acetic acid solvent system. The 5-HETE spots are visualized under UV light, cut out and placed in scintillation vials for counting. After adjusting for the extraction efficiency, the amount (pmole) of [^14 C]-5-HETE in each of the tubes is quantitated. The net pmoles of 5-HETE are obtained by subtracting the pmoles of 5-HETE in the tubes containing buffer alone (blank) from the pmoles of 5-HETE in the tubes containing […]. The ability of the test compounds to modulate the activity of this enzyme is determined by a decrease or increase in the net amount of 5-HETE produced.
(§1) If the percentage of inhibition exceeds 50%, the compounds are then evaluated in terms of response over a range of concentrations. From a plot of response against concentration, the I50 value is obtained. The I50 value is the concentration at which 50% inhibition is observed.

Another experiment has as its system LTC4. The experiment in a line: Antagonism of leukotriene C4 binding (guinea pig peripheral lung strips, contraction). It is filed as cell-based. Particulars: Cavia porcellus, leukotriene C4 usually 0.2 nM, 37° C., read-out: ANTAGONISM OF LTC4 BINDING, I50. On the procedure: Protocol for Antagonism of Leukotrines C-4 Binding
Peripheral strips of guinea pig lungs are prepared and hung in tissue baths according to the procedure described by Drazen et al. (Proc. Nat'l. Acad. Sci., U.S.A. 77, 4354-4358, 1980). Male guinea pigs (Charles River, 250-400 g) are sacrificed by cervical dislocation and their lungs rapidly removed. The individual lobes are dissected free and rinsed in Assay Buffer (118 mM NaCl, 5.4 mM KCl, 2.5 mM CaCl2, 25 mM […], 1 mM MgSO4, 1 mM NaH2 PO4, 11 mM glucose) which is continuously aerated with 95% oxygen/5% carbon dioxide. After the lobes are extensively rinsed, a strip of lung tissue, approximately 2 mm thick and 5-8 cm long, is cut off the sharpest and most peripheral portion of each lobe. The peripheral edge is cut almost completely around the outside of the lobe so that a U-shaped strip is obtained. These strips are rinsed in Assay Buffer and then connected with surgical silk thread to the support rods of the water jacketed tissue baths (10 ml chambers). The other ends of the strips are connected to Gould UC3 pressure transducers which had been previously calibrated. The tissue baths are aerated with 95% oxygen/5% carbon dioxide and maintained at 37° C. The tension on these strips are adjusted to 500 mg. The tissues are initially washed with fresh buffer every 5-10 minutes for about 30 minutes and thereafter washed with fresh assay buffer at least every 20 minutes.
After the tissue had been repeatedly washed and allowed to equilibrate in the tissue baths, they are challenged with 1 μM histamine to standardize the contractions for each tissue.
Responses of each tissue to a predetermined concentration (usually 0.2 nM) of leukotriene C4 are then obtained. Compounds are then tested for their ability to antagonize to leukotriene C4 immediately upon challenge.
as §1

For orientation: inhibition means how much of the control response was suppressed. The molecule `C=CCOc1ccc(CC(=O)NC(Cc2ccc(Cl)cc2)C(=O)OC)cc1Cl` (racemic) [4-Allyloxy-3-chlorophenylacetyl-DL-p-chlorophenylalanine methyl ester] showed an inhibition at 10 µM on RAT 5-LIPOXYGENASE of 25%. For the same molecule, the IC50 in the experiment on LTC4 is 9 µM.

`COC(=O)[C@@H](Cc1ccccc1)NC(=O)Cc1ccc(OCc2ccc3ccccc3n2)c(Cl)c1` [1-Chloro-4-[2-quinolinemethyloxy]-phenylacetyl-D-phenylalanine methyl ester]: at RAT 5-LIPOXYGENASE, the inhibition at 10 µM was found to be 50%.

Consider `COC(=O)[C@@H](Cc1ccccc1)NC(=O)Cc1ccc(OC)c(Cl)c1` [3-Chloro-4-methoxyphenylacetyl-D-phenylalanine methyl ester], for which, at RAT 5-LIPOXYGENASE, the IC50 was 3.8 µM. On RAT 5-LIPOXYGENASE, `C=CCOc1ccc(C(=O)N[C@@H](Cc2ccccc2)C(=O)OC)cc1Cl` [4-Allyloxy-3-chlorobenzoyl-L-phenylalanine methyl ester] returned an inhibition at 10 µM of 34%. Also, the IC50 in the experiment on LTC4 came to 15 µM.

In the case of `C=CCOc1ccc(CC(=O)N(C)[C@H](C)[C@@H](O)c2ccccc2)cc1Cl` [4-Allyloxy-3-chlorophenylacetyl-(+)-ephedrine], on RAT 5-LIPOXYGENASE, the IC50 is 15 µM.

For the molecule `C=CCOc1ccc(CC(=O)N(C)[C@@H](C)[C@H](O)c2ccccc2)cc1Cl` [4-Allyloxy-3-chlorophenylacetyl-(-)-ephedrine], the IC50 on RAT 5-LIPOXYGENASE stood at 30 µM. With `C=CCOc1ccc(CC(=O)N[C@H](Cc2ccccc2)C(=O)OC)cc1Cl` [4-Allyloxy-3-chlorophenylacetyl-D-phenylalanine methyl ester], the IC50 worked out at 0.7 µM on RAT 5-LIPOXYGENASE and 9 µM in the experiment on LTC4. In turn, `C=CCOc1ccc(CC(=O)N[C@@H](Cc2ccccc2)C(=O)OC)cc1Cl` [4-Allyloxy-3-chlorophenylacetyl-L-phenylalanine methyl ester] gave an inhibition at 10 µM on RAT 5-LIPOXYGENASE of 27%. Also, the IC50 in the experiment on LTC4 turned out to be 5 µM. As for `C=CCOc1ccc(CC(=O)N(CC(=O)OCC)Cc2ccccc2)cc1Cl` [4-Allyloxy-3-chlorophenylacetyl-N--benzylglycine ethyl ester], the IC50 at RAT 5-LIPOXYGENASE was 8 µM; in the experiment with LTC4 it was 20 µM. In turn, `O=C(Cc1ccc(OCc2ccccc2)c(Cl)c1)N[C@H](Cc1ccccc1)C(=O)O` [4-Benzyloxy-3-chlorophenylacetyl-D-phenylalanine] had an inhibition at 10 µM at RAT 5-LIPOXYGENASE of 40%.

For the molecule `COC(=O)[C@H](Cc1ccccc1)NC(=O)Cc1ccc(OCc2ccccc2)cc1` [4-Benzyloxyphenylacetyl-L-phenylalanine methyl ester], the inhibition at 10 µM at RAT 5-LIPOXYGENASE turned out to be 29%. For the same molecule, the IC50 with LTC4 turned out to be 5 µM. Regarding `COC(=O)[C@H](Cc1ccccc1)NC(=O)c1ccc(OC2C=CCCC2)cc1` (stereo partly drawn) [4-[2-Cyclohexenyloxy]-benzoyl-L-phenylalanine methyl ester], the inhibition at 10 µM against RAT 5-LIPOXYGENASE came to 33%. Still for that read-out and setting: for `COc1ccc(CC(=O)N(C)CCc2ccccc2)cc1Cl` [N--[3-Chloro-4-methoxyphenylacetyl]-N--methyl-2-phenylethylamine] the value was 33%. Molecule `C=CCOc1ccc(CC(=O)NCC(C)c2ccccc2)cc1Cl` (centres unmarked) [N--[4-Allyloxy-3-chlorophenylacetyl]-1-amino-2-phenylpropane] returned an inhibition at 10 µM against RAT 5-LIPOXYGENASE of 18%. Besides, in the experiment on LTC4, the IC50 was determined as 2.5 µM. As to `C=CCOc1ccc(CC(=O)NCC(O)c2ccccc2)cc1Cl` (centres unmarked) [N--[4-Allyloxy-3-chlorophenylacetyl]-2-hydroxy-2-phenylethylamine], the IC50 at RAT 5-LIPOXYGENASE came to 20 µM. In turn, `C=CCOc1ccc(CC(=O)NC(CO)C(O)c2ccccc2)cc1Cl` [N--[4-Allyloxy-3-chlorophenylacetyl]-3S-hydroxy-L-phenylalaninol] registered an inhibition at 10 µM at RAT 5-LIPOXYGENASE of 36%. In the case of `C=CCOc1ccc(CC(=O)N[C@H](CO)Cc2ccccc2)cc1Cl` [N--[4-Allyloxy-3-chlorophenylacetyl]-L-phenylalaninol], the inhibition at 10 µM against RAT 5-LIPOXYGENASE is 33%. The IC50 with LTC4 was found to be 3 µM.

For `C=CCOc1ccc(CC(=O)N(C)CC(O)c2ccccc2)cc1Cl` (centres unmarked) [N--[4-Allyloxy-3-chlorophenylacetyl]-N--methyl-2-hydroxy-2-phenylethylamine], the IC50 on RAT 5-LIPOXYGENASE was found to be 1.8 µM; in the experiment with LTC4, 18 µM. In the case of `C=CCOc1ccc(CC(=O)N(CCO)Cc2ccccc2)cc1Cl` [N--benzyl, N--[2-hydroxyethyl]-3-chloro-4-allyloxyphenylacetamide], testing at 10 µM against RAT 5-LIPOXYGENASE gave an inhibition of 41%. Take `C=CCOc1ccc(CC(=O)N(C)Cc2ccccc2)cc1Cl` [N--benzyl, N--methyl-3-chloro-4-allyloxy-phenylacetamide]: the IC50 at RAT 5-LIPOXYGENASE came out at 20 µM.

The values are drawn from patent US4579866A, “Phenylacetamides as anti-allergy, anti-asthma and anti-inflammatory agents” (USV Pharmaceutical Corp., priority 1984, dated 1986).
